Where two headings read alike, the source gives them in different places.
Assays:
[1] = tested on: R848-induced TNFα production by human peripheral blood mononuclear cells (PBMCs); assay: R848 Induced TNFα in Human PBMC Assay; format: cell-based; conditions: Homo sapiens, PBMC, 3 h, read-out: R848-induced TNFa PBMC IC50 (nM)
From the text: R848 Induced TNFα in Human PBMC Assay.
This protocol is for R848-induced TNFα production by human peripheral blood mononuclear cells (PBMCs). […] The assay is used to assess cell-based potency of small molecule inhibitors of IRAK4 in the absence of serum.
The PBMCs in the interphase layer were collected and washed with PBS via centrifugation multiple times until the supernatant is clear. The purified PBMCs were re-suspended in RPMI (Roswell Park Memorial Institute) media (Sigma-Aldrich).
For the assay, a compound dilution plate containing a top concentration of 4 mM compound in DMSO was serially diluted 4-fold for 11 times. 250 nL of the compound dilution plate was spotted into a 384-well, flat bottom with lid, TC-treated, black with clear bottom, sterile, polystyrene plate (Corning Life Sciences).
10 μL of anti-TNFα antibody labeled with MSD SULFO-TAG at 50 μg/mL was added to each well and allowed to incubate overnight at 4° C.

[2] = biological target: human IRAK4 FL (Full Length) (Homo sapiens (Human), UniProt Q9NWZ3); assay: IRAK4 Enzymatic DELFIA Assay, Protocol A; format: biochemical
[3] = human IRAK4 FL, 0.6 mM ATP (KM), read-out: IRAK4 DELFIA Protocol A IC50

Sequence of human IRAK4 FL (Full Length) (Q9NWZ3 whole entry): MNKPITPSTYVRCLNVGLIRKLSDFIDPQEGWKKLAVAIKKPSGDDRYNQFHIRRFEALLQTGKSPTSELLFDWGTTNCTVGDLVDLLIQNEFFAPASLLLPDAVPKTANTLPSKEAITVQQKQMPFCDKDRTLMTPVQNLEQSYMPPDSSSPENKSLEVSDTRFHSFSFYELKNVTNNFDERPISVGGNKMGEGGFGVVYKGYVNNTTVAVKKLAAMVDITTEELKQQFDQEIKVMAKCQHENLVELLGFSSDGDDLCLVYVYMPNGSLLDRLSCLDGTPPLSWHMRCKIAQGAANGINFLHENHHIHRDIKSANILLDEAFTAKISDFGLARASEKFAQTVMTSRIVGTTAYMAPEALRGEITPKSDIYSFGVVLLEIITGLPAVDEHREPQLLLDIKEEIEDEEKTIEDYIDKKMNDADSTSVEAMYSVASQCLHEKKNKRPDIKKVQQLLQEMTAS

| Compound | IC50 [1] [nM] | IC50 [2, 3] [nM] | IC50 [2] [nM] |
| --- | --- | --- | --- |
| CC(C)Oc1cc2c(OC[C@@H]3C[C@@H](C)C(=O)N3)nccc2cc1C(N)=O [Example 124, 1-{[(2S,4R)-4-methyl-5-oxopyrrolidin-2-yl]methoxy}-7-(propan-2-yloxy)isoquinoline-6-carboxamide] | 175 | 7.8 |  |
| CC(C)Oc1cc2c(OC[C@@H]3C[C@H](C)C(=O)N3)nccc2cc1C(N)=O [Example 125, 1-{[(2S,4S)-4-methyl-5-oxopyrrolidin-2-yl]methoxy}-7-(propan-2-yloxy)isoquinoline-6-carboxamide] | 685 | 40 |  |
| COCC1C[C@@H](COc2nccc3cc(C(N)=O)c(OC(C)C)cc23)NC1=O (stereo partly drawn) [Example 127, 1-{[(2S)-4-(methoxymethyl)-5-oxopyrrolidin-2-yl]methoxy}-7-(propan-2-yloxy)isoquinoline-6-carboxamide] | 682 | 65 |  |
| CC(C)Oc1cc2c(OC[C@@H]3CC(F)(F)C(=O)N3)nccc2cc1C(N)=O [Example 128, 1-{[(2S)-4,4-difluoro-5-oxopyrrolidin-2-yl]methoxy}-7-(propan-2-yloxy)isoquinoline-6-carboxamide] | 27 | 0.3 |  |
| CC[C@]1(F)C[C@@H](COc2nccc3cc(C(N)=O)c(OC(C)C)cc23)NC1=O [Example 131, 1-{[(2S,4S)-4-ethyl-4-fluoro-5-oxopyrrolidin-2-yl]methoxy}-7-(propan-2-yloxy)isoquinoline-6-carboxamide] | 29 | 0.6 |  |
| CC[C@@]1(F)C[C@@H](COc2nccc3cc(C(N)=O)c(OC(C)C)cc23)NC1=O [Example 132, 1-{[(2S,4R)-4-ethyl-4-fluoro-5-oxopyrrolidin-2-yl]methoxy}-7-(propan-2-yloxy)isoquinoline-6-carboxamide] | 1180 | 188 |  |
| CC(C)Oc1cc2c(OC[C@@H]3C[C@](C)(F)C(=O)N3)nccc2cc1C(N)=O [Example 134, 1-{[(2S,4S)-4-fluoro-4-methyl-5-oxopyrrolidin-2-yl]methoxy}-7-(propan-2-yloxy)isoquinoline-6-carboxamide] | 36 | 1 |  |
| CC[C@H]1C[C@@H](COc2nccc3cc(C(N)=O)c(OC(C)C)cc23)NC1=O [Example 135, 1-{[(2S,4S)-4-ethyl-5-oxopyrrolidin-2-yl]methoxy}-7-(propan-2-yloxy)isoquinoline-6-carboxamide] | 32 | 1.2 |  |
| CC[C@@H]1C[C@@H](COc2nccc3cc(C(N)=O)c(OC(C)C)cc23)NC1=O [Example 136, 1-{[(2S,4R)-4-ethyl-5-oxopyrrolidin-2-yl]methoxy}-7-(propan-2-yloxy)isoquinoline-6-carboxamide] | 184 | 7.8 |  |
| CC(C)Oc1cc2c(OC[C@H]3NC(=O)C[C@@H]3C)nccc2cc1C(N)=O [Example 141, 1-{[(2S,3S)-3-methyl-5-oxopyrrolidin-2-yl]methoxy}-7-(propan-2-yloxy)isoquinoline-6-carboxamide] | 294 | 70 |  |
| CC(C)Oc1cc2c(OC[C@@H]3C[C@@H](F)C(=O)N3)nccc2cc1C(N)=O [Example 144, 1-{[(2S,4R)-4-fluoro-5-oxopyrrolidin-2-yl]methoxy}-7-(propan-2-yloxy)isoquinoline-6-carboxamide] | 141 | 1.4 |  |
| CC(C)Oc1cc2c(OC[C@@H]3C[C@H](F)C(=O)N3)nccc2cc1C(N)=O [Example 145, 1-{[(2S,4S)-4-fluoro-5-oxopyrrolidin-2-yl]methoxy}-7-(propan-2-yloxy)isoquinoline-6-carboxamide] | 41 | 0.4 |  |
| COc1cc2c(OC[C@@H]3CC(F)(F)C(=O)N3)nccc2cc1C(N)=O [Example 146, 1-{[(2S)-4,4-difluoro-5-oxopyrrolidin-2-yl]methoxy}-7-methoxyisoquinoline-6-carboxamide] | 15 | 0.2 |  |
| CC(C)Oc1cc2c(OCC3(CO)CCC(=O)N3)nccc2cc1C(N)=O (stereo not shown) [Example 147, 1-{[2-(hydroxymethyl)-5-oxopyrrolidin-2-yl]methoxy}-7-(propan-2-yloxy)isoquinoline-6-carboxamide] | 1160 |  | 59 |
| CC(C)Oc1cc2c(OC[C@@H]3C[C@H](O)C(=O)N3)nccc2cc1C(N)=O [Example 150, 1-{[(2S,4S)-4-hydroxy-5-oxopyrrolidin-2-yl]methoxy}-7-(propan-2-yloxy)isoquinoline-6-carboxamide] | 864 | 41 |  |
| CC(C)Oc1cc2c(OC[C@@H]3C[C@@H](CC(F)(F)F)C(=O)N3)nccc2cc1C(N)=O [Example 151, 1-{[(2S,4S)-5-oxo-4-(2,2,2-trifluoroethyl)pyrrolidin-2-yl]methoxy}-7-(propan-2-yloxy)isoquinoline-6-carboxamide] | 25 | 1.2 |  |

| Compound | IC50 [1] [nM] | IC50 [2, 3] [nM] | IC50 [2] [nM] |
| --- | --- | --- | --- |
| CC(C)Oc1cc2c(OC[C@@H]3C[C@H](CC(F)(F)F)C(=O)N3)nccc2cc1C(N)=O [Example 152, 1-{[(2S,4R)-5-oxo-4-(2,2,2-trifluoroethyl)pyrrolidin-2-yl]methoxy}-7-(propan-2-yloxy)isoquinoline-6-carboxamide] | 139 | 6.7 |  |
| CC(C)Oc1cc2c(OC[C@@H]3C[C@](F)(CO)C(=O)N3)nccc2cc1C(N)=O [Example 163, 1-{[(2S,4S)-4-fluoro-4-(hydroxymethyl)-5-oxopyrrolidin-2-yl]methoxy}-7-(propan-2-yloxy)isoquinoline-6-carboxamide] | 7450 | 1400 |  |
| CC(C)Oc1cc2c(OC[C@@H]3C[C@@](F)(CO)C(=O)N3)nccc2cc1C(N)=O [Example 164, 1-{[(2S,4R)-4-fluoro-4-(hydroxymethyl)-5-oxopyrrolidin-2-yl]methoxy}-7-(propan-2-yloxy)isoquinoline-6-carboxamide] | 116 | 1.7 |  |
| CC(C)Oc1cc2c(OC[C@@H]3C[C@@H](CO)C(=O)N3)nccc2cc1C(N)=O [Example 166, 1-{[(2S,4S)-4-(hydroxymethyl)-5-oxopyrrolidin-2-yl]methoxy}-7-(propan-2-yloxy)isoquinoline-6-carboxamide] | 389 | 4.3 |  |
| CC(C)Oc1cc2c(OC[C@@H]3CCC(=O)N3)ncc(F)c2cc1C(N)=O [Example 168, 4-fluoro-1-{[(2S)-5-oxopyrrolidin-2-yl]methoxy}-7-(propan-2-yloxy)isoquinoline-6-carboxamide] | 1460 | 6.6 |  |
| CC(C)Oc1cc2c(OC[C@H]3NC(=O)[C@H](F)[C@H]3C)nccc2cc1C(N)=O [Example 170, 1-{[(2S,3S,4R)-4-fluoro-3-methyl-5-oxopyrrolidin-2-yl]methoxy}-7-(propan-2-yloxy)isoquinoline-6-carboxamide] | 41 | 0.8 |  |
| CC(C)Oc1cc2c(OC[C@H]3NC(=O)[C@@H]4C[C@H]34)nccc2cc1C(N)=O [Example 174, 1-{[(1S,2S,5R)-4-oxo-3-azabicyclo[3.1.0]hex-2-yl]methoxy}-7-(propan-2-yloxy)isoquinoline-6-carboxamide] | 126 | 3.1 |  |
| COc1cc2c(OC[C@@H]3C[C@](C)(F)C(=O)N3)nccc2cc1C(N)=O [Example 177, 1-{[(2S,4S)-4-fluoro-4-methyl-5-oxopyrrolidin-2-yl]methoxy}-7-methoxyisoquinoline-6-carboxamide] | 43 | 3.8 |  |
| CC(C)Oc1cc2c(OC[C@@H]3C[C@@H](O)C(=O)N3)nccc2cc1C(N)=O [Example 179, 1-{[(2S,4R)-4-hydroxy-5-oxopyrrolidin-2-yl]methoxy}-7-(propan-2-yloxy)isoquinoline-6-carboxamide] | 199 | 1.2 |  |
| CC(C)Oc1cc2c(OC[C@@H]3CCC(=O)N3C)nccc2cc1C(N)=O [Example 180, 1-{[(2S)-1-methyl-5-oxopyrrolidin-2-yl]methoxy}-7-(propan-2-yloxy)isoquinoline-6-carboxamide] | 2560 | 1790 |  |
| CC(C)Oc1cc2c(OC[C@@H]3CC(C4(O)CCOCC4)C(=O)N3)nccc2cc1C(N)=O (stereo partly drawn) [Example 181, 1-{[(2S)-4-(4-hydroxytetrahydro-2H-pyran-4-yl)-5-oxopyrrolidin-2-yl]methoxy}-7-(propan-2-yloxy)isoquinoline-6-carboxamide] | 503 | 5.7 |  |
| CC(C)Oc1cc2c(OC[C@H]3NC(=O)C(F)(F)[C@H]3C)nccc2cc1C(N)=O [Example 183, 1-{[(2S,3S)-4,4-difluoro-3-methyl-5-oxopyrrolidin-2-yl]methoxy}-7-(propan-2-yloxy)isoquinoline-6-carboxamide] | 10 | 0.2 |  |
| CC(C)Oc1cc2c(OC[C@H]3NC(=O)[C@@H](F)[C@H]3C)nccc2cc1C(N)=O [Example 187, 1-{[(2S,3S,4S)-4-fluoro-3-methyl-5-oxopyrrolidin-2-yl]methoxy}-7-(propan-2-yloxy)isoquinoline-6-carboxamide] | 40 | 1.1 |  |
| CC[C@H]1[C@@H](COc2nccc3cc(C(N)=O)c(OC(C)C)cc23)NC(=O)C1(F)F [Example 201, 1-{[(2S,3S)-3-ethyl-4,4-difluoro-5-oxopyrrolidin-2-yl]methoxy}-7-(propan-2-yloxy)isoquinoline-6-carboxamide] | 1 | 0.4 |  |
| CC(C)Oc1cc2c(OC[C@@H]3CNC(=O)N3)nccc2cc1C(N)=O [Example 202, 1-{[(4S)-2-oxoimidazolidin-4-yl]methoxy}-7-(propan-2-yloxy)isoquinoline-6-carboxamide] | 922 | 85 |  |
| COc1cc2c(OC[C@@H]3C[C@@](F)(CO)C(=O)N3)nccc2cc1C(N)=O [Example 205, 1-{[(2S,4R)-4-fluoro-4-(hydroxymethyl)-5-oxopyrrolidin-2-yl]methoxy}-7-methoxyisoquinoline-6-carboxamide] | 380 | 3.6 |  |

Reference: patent publication US10329302B2, “Bicyclic-fused heteroaryl or aryl compounds” (Pfizer Inc., priority 2014, dated 2019)
